Some test systems named below: NCI-H522; HCT-15; UACC-257; NCI/ADR-RES; OVCAR-3; TK-10; NCI-H23; NCI-H460; IGROV-1; RXF 393; SNB-19; RPMI-8226; EKVX; A498; SF-268; HCT-116; SK-OV-3; BT-549; DU-145.
Holding throughout (assay): DTP human tumour cell line panel, 48 h

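Tested at 5 concentrations; 48 h exposure; 96-well plates; endpoints linearly interpolated, else capped at highest concentration. At the GI50, growth is halved.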 Active and inactive are the calls of the source. No stated cut-off is given here; in the data, active = GI50 up to about 1.1 µM and inactive = higher.

`O=C(O)c1cccc(S(=O)(=O)NCCO)c1`: the GI50 (in general, the concentration giving 50% growth inhibition) in the assay on NCI-H522 was > 100 µM (inactive); in the assay on HCT-15, more than 100 µM; in the assay with UACC-257, > 100 µM (inactive); in the assay on NCI/ADR-RES, > 100 µM (inactive); in the assay on OVCAR-3 it was > 100 µM (inactive); in the assay with TK-10, > 100 µM (inactive). For the same compound, the GI50 with NCI-H23, with NCI-H460, with IGROV-1, in the assay on RXF 393, with SNB-19 and in the assay with RPMI-8226 was > 100 µM (inactive) throughout. For the same compound, the GI50 in the assay on EKVX, in the assay with A498, with SF-268, in the assay with HCT-116, in the assay on SK-OV-3 and in the assay on BT-549 was > 100 µM (inactive) in each case. Further, in the assay on DU-145, the GI50 was > 100 µM (inactive).
Regarding `O=C(O)CCSCc1ccc(I)cc1`, the GI50 in the assay on NCI-H522 is > 100 µM (inactive); with HCT-15, more than 100 µM; in the assay on UACC-257, > 100 µM (inactive); with NCI/ADR-RES, > 100 µM (inactive); in the assay on OVCAR-3 it was > 100 µM (inactive); in the assay on TK-10 it was > 100 µM (inactive). Moreover, the GI50 with NCI-H23 is > 100 µM (inactive); with NCI-H460 it was > 100 µM (inactive); in the assay on IGROV-1 it was > 100 µM (inactive); in the assay on RXF 393, 96.4 µM (inactive); in the assay on SNB-19, > 100 µM (inactive); in the assay on RPMI-8226, > 100 µM (inactive). Moreover, the GI50 in the assay with EKVX, in the assay on A498, in the assay with SF-268, in the assay on HCT-116, in the assay on SK-OV-3 and with BT-549 was > 100 µM (inactive) each time. Besides, the GI50 in the assay on DU-145 was > 100 µM (inactive).
Consider `O=C1N/C(=N\N=C\c2ccccc2)C(c2ccccc2)O1` (configuration not stated), for which the GI50 is > 100 µM (inactive) in the assay with NCI-H522; 19.8 µM in the assay on HCT-15; 66.1 µM (inactive) with UACC-257; 33.3 µM (inactive) in the assay on NCI/ADR-RES; 27.4 µM (inactive) with OVCAR-3; 24 µM (inactive) in the assay on TK-10. Besides, the GI50 is > 100 µM (inactive) in the assay on NCI-H23; 38.4 µM (inactive) in the assay on NCI-H460; > 100 µM (inactive) with IGROV-1; 80 µM (inactive) in the assay on RXF 393; > 100 µM (inactive) in the assay with SNB-19; 34.4 µM (inactive) in the assay with RPMI-8226. Moreover, the GI50 was 66.8 µM (inactive) with EKVX; 99.3 µM (inactive) in the assay on A498; 52.2 µM (inactive) in the assay with SF-268; 37.3 µM (inactive) in the assay with HCT-116; > 100 µM (inactive) with SK-OV-3; 33 µM (inactive) with BT-549. In the assay with DU-145, the GI50 is 53 µM (inactive).
On to `Cc1ccc(C(=O)C(Cl)C(Cl)c2ccc(C)cc2)cc1` (configuration not stated), for which the GI50 with NCI-H522 was 2.52 µM (inactive); in the assay on HCT-15 it was 1.83 µM; in the assay with UACC-257 it was 1.92 µM (inactive); in the assay with NCI/ADR-RES it was 2.55 µM (inactive); in the assay on OVCAR-3 it was 3.42 µM (inactive); with TK-10, 2.99 µM (inactive). Further, the GI50 in the assay on NCI-H23 was 9.38 µM (inactive); in the assay on NCI-H460, 8.38 µM (inactive); in the assay with IGROV-1, 2.58 µM (inactive); with RXF 393, 7.46 µM (inactive); in the assay with SNB-19 it was 8.2 µM (inactive); in the assay with RPMI-8226 it was 1.56 µM (inactive). For the same compound, the GI50 in the assay on EKVX is 5.42 µM (inactive); in the assay on A498 it was 16.3 µM (inactive); in the assay on SF-268, 5.56 µM (inactive); in the assay on HCT-116, 1.88 µM (inactive); with SK-OV-3, 15.2 µM (inactive); in the assay with BT-549, 3.78 µM (inactive). Also, the GI50 in the assay on DU-145 was 5.18 µM (inactive).
For the compound `O=C(O)C1C2c3ccccc3C(c3ccccc32)C1C(=O)NCC1CC1` (configuration not stated), the GI50 with NCI-H522 is 29.9 µM (inactive); with HCT-15, 48.3 µM; in the assay with UACC-257, 19.1 µM (inactive); with NCI/ADR-RES, 32.4 µM (inactive); in the assay on OVCAR-3, 46.8 µM (inactive); in the assay with TK-10, 32.4 µM (inactive). Also, the GI50 was 47.9 µM (inactive) in the assay on NCI-H23; 40.2 µM (inactive) with NCI-H460; 72.6 µM (inactive) in the assay with IGROV-1; 97.5 µM (inactive) with RXF 393; > 100 µM (inactive) in the assay on SNB-19; 24.7 µM (inactive) with RPMI-8226. In addition, the GI50 with EKVX was 71.9 µM (inactive); with A498 it was 78 µM (inactive); with SF-268, 94.4 µM (inactive); with HCT-116, 47.4 µM (inactive); in the assay on SK-OV-3, 56.2 µM (inactive); in the assay with BT-549, 60 µM (inactive). In addition, in the assay with DU-145, the GI50 was 81.1 µM (inactive).
Consider `O=C(c1ccccc1)C(Nc1ccc2ccccc2c1)c1ccccc1` (configuration not stated), for which the GI50 in the assay with NCI-H522 was 6.98 µM (inactive); in the assay with HCT-15, 29 µM; in the assay on UACC-257, 15.3 µM (inactive); in the assay with NCI/ADR-RES, 25.2 µM (inactive); in the assay with OVCAR-3 it was 13.9 µM (inactive); in the assay with TK-10 it was 29 µM (inactive). In addition, the GI50 in the assay on NCI-H23 was 24.4 µM (inactive); in the assay on NCI-H460, 21.2 µM (inactive); in the assay with IGROV-1, 29.7 µM (inactive); in the assay with RXF 393, > 43.9 µM (inactive); in the assay on SNB-19 it was 34.7 µM (inactive); with RPMI-8226, 11.1 µM (inactive). Besides, the GI50 in the assay with EKVX is 17.6 µM (inactive); in the assay with A498, 21.3 µM (inactive); with SF-268, 39.5 µM (inactive); with HCT-116 it was 15.7 µM (inactive); with SK-OV-3, 40.7 µM (inactive); with BT-549 it was 32.1 µM (inactive). The GI50 with DU-145 was 42 µM (inactive).
On to `O=C(Nc1ccc(Cl)cc1)c1cc(S(=O)(=O)Nc2nnc3c(Cl)cc(C(F)(F)F)cn23)c(S)cc1Cl`, for which the GI50 with NCI-H522 was 80 µM (inactive); in the assay on HCT-15, more than 100 µM; in the assay with UACC-257, > 100 µM (inactive); in the assay on NCI/ADR-RES, > 100 µM (inactive); in the assay with OVCAR-3, > 100 µM (inactive); in the assay on TK-10, > 100 µM (inactive). Moreover, the GI50 with NCI-H23 was 59.7 µM (inactive); in the assay on NCI-H460, 43.1 µM (inactive); in the assay on IGROV-1 it was > 100 µM (inactive); with RXF 393 it was > 100 µM (inactive); in the assay with SNB-19, 52.2 µM (inactive); in the assay with RPMI-8226, > 100 µM (inactive). Moreover, the GI50 in the assay on EKVX was > 100 µM (inactive); in the assay on A498 it was 28.7 µM (inactive); in the assay on SF-268, 70 µM (inactive); in the assay with HCT-116, 68.1 µM (inactive); in the assay on SK-OV-3, 41.9 µM (inactive); in the assay with BT-549 it was > 100 µM (inactive). Also, in the assay with DU-145, the GI50 is > 100 µM (inactive).
Take `COc1cccc2c1C(=O)c1c(O)c3c(c(O)c1C2=O)C[C@@](O)(C(=O)CO)CC3OC1CC(N)C(OC2CCCCO2)C(C)O1` (some centres not stated): the concentration for 50% growth inhibition (GI50) was 0.541 µM (active) in the assay on NCI-H522; 1.61 µM with HCT-15; 1.17 µM (inactive) with UACC-257; 0.959 µM (active) in the assay with NCI/ADR-RES; 1.56 µM (inactive) in the assay with OVCAR-3; 1.37 µM (inactive) in the assay on TK-10. For the same compound, the concentration for 50% growth inhibition (GI50) with NCI-H23 is 0.478 µM (active); in the assay with NCI-H460, 0.0134 µM (active); in the assay on IGROV-1, 0.929 µM (active); with RXF 393 it was 1.48 µM (inactive); in the assay on SNB-19 it was 0.437 µM (active); with RPMI-8226 it was 0.33 µM (active). For the same compound, the GI50 in the assay on EKVX was 1.39 µM (inactive); in the assay with A498, 0.309 µM (active); with SF-268, 0.785 µM (active); in the assay on HCT-116 it was 0.324 µM (active); in the assay on SK-OV-3, 0.807 µM (active); with BT-549, 0.176 µM (active). For the same compound, the concentration for 50% growth inhibition (GI50) in the assay with DU-145 was 0.0031 µM (active).

(Values after ChEMBL document CHEMBL1201862, “PubChem BioAssay data set” (2004).)
